Earlier results in patent publication US8071770B2, “Spirohydantoin aryl CGRP receptor antagonists” (Merck Sharp & Dohme Corp., priority 2005, dated 2011).
Ends that are not written are not given here.

Tests used:
facial blood flow [1] = settings: marmoset, electrical stimulation of the trigeminal ganglion (Doods et al. 2000)
middle meningeal artery = settings: rats, electrical stimulation of the dura mater, prior administration (Williamson et al. 1997)
facial blood flow [2] = settings: rat, trigeminal ganglion stimulation (Escott et al. 1995)

## NCCCC[C@H](NC(=O)[C@@H](Cc1cc(Br)c(O)c(Br)c1)NC(=O)N1CCC(N2Cc3ccccc3NC2=O)CC1)C(=O)N1CCN(c2ccncc2)CC1 [BIBN4096BS]
Facial blood flow [1]
  effect on increase in facial blood flow: blocked

## CGRP (8-37): a fragment of CGRP that lacks seven N-terminal amino acid residues; a peptide CGRP antagonist (VTHRLAGLLSRSGGVVKNNFVPTNVGSKAF; ends and bridges not checked; UniProt P06881 90-119, looked up, fragment)
Middle meningeal artery
  effect on increase of middle meningeal artery diameter: blocked
Facial blood flow [2]
  effect on increase of facial blood flow: inhibited
